Experimental data as given in the C3SDB collision cross section collection.
Values joined by “and” are separate entries in the source; they are usually repeats but may differ in a detail not shown here. Equal values may be shown once. Where a name gives a salt, the structure may show the parent alone.

conditions: [M+H-H2O]+; instrument: TW; calibrated with polyalanine and drug standards

For COc1ccc2c(c1)OC1(O)COc3cc(OC)c(OC)cc3C1=C2 (centres undefined) [12a-HYDROXY-5-DEOXYDEHYDROMUNDUSERONE], which “collision cross section (N2)” value is on record?
The value was 173 Å².

same assay, conditions: [M+H]+; instrument: TW; calibrated with polyalanine and drug standards

For CC(C)(O)CC[C@@H](O)[C@](C)(O)[C@H]1CC[C@@]2(O)C3=CC(=O)[C@@H]4C[C@@H](O)[C@@H](O)C[C@]4(C)[C@H]3CC[C@]12C [CRUSTECDYSONE], which “collision cross section (N2)” value is on record?
The value was 221.3 Å².

Which “collision cross section (N2)” value does the source give for COC(=O)[C@H]1[C@H]2C[C@@H]3c4[nH]c5cc(OC)ccc5c4CCN3C[C@H]2C[C@@H](OC(=O)c2cc(OC)c(OC)c(OC)c2)[C@@H]1OC [RESERPINE] here?
Its value is 247.3 Å².

For NS(=O)(=O)c1cc2c(cc1C(F)(F)F)NC(Cc1ccccc1)NS2(=O)=O (centres undefined) [BENDROFLUMETHIAZIDE], which “collision cross section (N2)” value is on record?
The value was 188.6 Å².

For COC1=CC(=O)O[C@@H](/C=C/c2ccccc2)C1 [KAWAIN], which “collision cross section (N2)” value is on record?
The value was 149.4 Å².

Which “collision cross section (N2)” value does the source give for COc1ccccc1OCC(O)CN1CCN(CC(=O)Nc2c(C)cccc2C)CC1 (centres undefined) [RANOLAZINE] here?
The value was 205.2 Å².

For CCOP(=S)(OCC)Oc1nc(Cl)c(Cl)cc1Cl [CHLORPYRIFOS], which “collision cross section (N2)” value is on record?
The value was 201.7 Å².

Which “collision cross section (N2)” value does the source give for CC(=O)O[C@]1(C(C)=O)CC[C@H]2[C@@H]3C[C@H](C)C4=CC(=O)CC[C@]4(C)[C@H]3CC[C@@]21C [MEDROXYPROGESTERONE ACETATE] here?
Its value is 197.2 Å².

For NC(N)=NC(=O)c1nc(Cl)c(N2CCCCCC2)nc1N [N,N-HEXAMETHYLENEAMILORIDE], which “collision cross section (N2)” value is on record?
Its value is 174.7 Å².

Which “collision cross section (N2)” value does the source give for CC1(C)C2CC(=O)[C@]3(C)C(CC[C@@]4(C)[C@H](c5ccoc5)OC(=O)C5OC543)[C@@]2(C)[C@@H](O)C[C@H]1O (some centres undefined) [1,3-DIDEACETYL-7-DEACETOXY-7-OXOKHIVORIN] here?
Its value is 200.2 Å².

For CC(C)Cc1ccc(C(C)C(=O)O)cc1 (centres undefined) [IBUPROFEN], which “collision cross section (N2)” value is on record?
The value was 144 Å².

Which “collision cross section (N2)” value does the source give for C=C(C)[C@H]1COc2cc3oc(=O)ccc3cc2O1 [OBLIQUIN] here?
Its value is 150.1 Å².

Which “collision cross section (N2)” value does the source give for OC[C@@H]1CCCN2CCCC[C@H]12 [LUPININE] here?
Its value is 135.3 Å².

For Cc1cccc2c3c(ccc12)C1=C(C(=O)C3=O)[C@@H](C)CO1 [DIHYDROTANSHINONE I], which “collision cross section (N2)” value is on record?
The value was 159.4 Å².

For Oc1ccc(Cl)cc1 [PARACHLOROPHENOL], which “collision cross section (N2)” value is on record?
The value was 108.8 Å².

Which “collision cross section (N2)” value does the source give for C[C@H](CCC(=O)NCC(=O)O)[C@H]1CC[C@H]2[C@@H]3[C@H](O)C[C@@H]4C[C@H](O)CC[C@]4(C)[C@H]3C[C@H](O)[C@]12C [GLYCOCHOLIC ACID] here?
The value was 205.2 Å².

For OC[C@H]1O[C@@H](O[C@@H]2[C@@H](CO)O[C@](O)(CO)[C@H]2O)[C@H](O)[C@@H](O)[C@H]1O [LACTULOSE], which “collision cross section (N2)” value is on record?
Its value is 169.2 Å².

With CN1CCOC(c2ccccc2)c2ccccc2C1 (centres undefined) [NEFOPAM] as the compound, how does the “collision cross section (N2)” value read?
The value was 157.1 Å².

For COc1ccc2oc(-c3ccccc3)c(OC)c(=O)c2c1 [3,6-DIMETHOXYFLAVONE], which “collision cross section (N2)” value is on record?
The value was 159.9 Å².

With COc1ccc2c(c1)OCC(Cc1ccc(OC)c(O)c1)C2=O (centres undefined) [DEOXYSAPPANONE B 7,4'-DIMETHYL ETHER] as the compound, how does the “collision cross section (N2)” value read?
The value was 170.6 Å².

For NS(=O)(=O)c1cc2c(cc1Cl)NC=NS2(=O)=O [CHLOROTHIAZIDE], which “collision cross section (N2)” value is on record?
Its value is 161 Å².

For C[C@]12CCC(=O)C=C1CC[C@@H]1[C@@H]2[C@@H](O)C[C@@]2(C)[C@H]1CC[C@]2(O)C(=O)COC(=O)CCC(=O)O [HYDROCORTISONE HEMISUCCINATE], which “collision cross section (N2)” value is on record?
Its value is 212.4 Å².

Which “collision cross section (N2)” value does the source give for C#C[C@]1(OC(C)=O)CC[C@H]2[C@@H]3CCC4=C/C(=N/O)CC[C@@H]4[C@H]3CC[C@@]21CC [NORGESTIMATE] here?
Its value is 197.6 Å².

With COc1c(OC)c2occc2c2oc(=O)ccc12 [PIMPINELLIN] as the compound, how does the “collision cross section (N2)” value read?
The value was 146.4 Å².

With CCCCCc1c2c(cc(O)c1C(=O)O)OC(=O)c1c(cc(OC)cc1C(=O)CCCC)O2 [LOBARIC ACID] as the compound, how does the “collision cross section (N2)” value read?
Its value is 209.7 Å².

For O=C(CCCN1CCN(c2ccccn2)CC1)c1ccc(F)cc1 [AZAPERONE], which “collision cross section (N2)” value is on record?
Its value is 180 Å².

With O=P1(NCCCl)OCCCN1CCCl (centres undefined) [IFOSFAMIDE] as the compound, how does the “collision cross section (N2)” value read?
Its value is 147 Å².

With O=c1cc(CO)occ1O [KOJIC ACID] as the compound, how does the “collision cross section (N2)” value read?
The value was 121.9 Å².

For C[C@H]1COc2c(N3CCN(C)CC3)c(F)cc3c(=O)c(C(=O)O)cn1c23 [LEVOFLOXACIN], which “collision cross section (N2)” value is on record?
Its value is 188.5 Å².

For CC(=O)O[C@@H]1CC[C@@]2(C)C(C[C@@H](OC(C)=O)[C@@]3(C)C4=CC(=O)O[C@@H](c5ccoc5)[C@]4(C)CCC23)C1(C)C (stereo partly drawn) [3alpha-ACETOXYDIHYDRODEOXYGEDUNIN], which “collision cross section (N2)” value is on record?
Its value is 218 Å².

With COc1ccc(-c2coc3cc(O)ccc3c2=O)cc1 [FORMONONETIN] as the compound, how does the “collision cross section (N2)” value read?
The value was 156.8 Å².

Which “collision cross section (N2)” value does the source give for CCn1cc(C(=O)O)c(=O)c2cc(F)c(N3CCNCC3)nc21 [ENOXACIN] here?
The value was 168.1 Å² and 184.7 Å².

Which “collision cross section (N2)” value does the source give for CC(C)=CCC[C@]1(C)C=Cc2c(O)c3c(c(CC=C(C)C)c2O1)O[C@]12C(=C[C@@H]4C[C@H]1C(C)(C)O[C@@]2(C/C=C(/C)C(=O)O)C4=O)C3=O [GAMBOGIC ACID] here?
The value was 239 Å².

For CC(=O)OCC(CCn1cnc2cnc(N)nc21)COC(C)=O [FAMCICLOVIR], which “collision cross section (N2)” value is on record?
The value was 168.4 Å².

For CCN(CC)C(=S)SSC(=S)N(CC)CC [DISULFIRAM], which “collision cross section (N2)” value is on record?
The value was 165.5 Å².

With COc1cc2c(cc1OC)-c1c(oc3c4c(ccc3c1=O)OC(C(C)C)C4)CO2 (centres undefined) [DEHYDRODIHYDROROTENONE] as the compound, how does the “collision cross section (N2)” value read?
Its value is 194.6 Å².

With NC(=O)N1c2ccccc2C=Cc2ccccc21 [CARBAMAZEPINE] as the compound, how does the “collision cross section (N2)” value read?
The value was 149 Å².

With CC(C)=CC1C(C(=O)O)C1(C)C (centres undefined) [CHRYSANTHEMIC ACID] as the compound, how does the “collision cross section (N2)” value read?
The value was 130 Å².

With O=c1c(O)c(-c2ccc(O)cc2)oc2cc(O)cc(O)c12 [KAEMPFEROL] as the compound, how does the “collision cross section (N2)” value read?
Its value is 159.2 Å².

For CN1CC(=O)N2[C@H](c3ccc4c(c3)OCO4)c3[nH]c4ccccc4c3C[C@@H]2C1=O [TADALAFIL], which “collision cross section (N2)” value is on record?
The value was 188.7 Å².

For COC(=O)C[C@H]1C(C)(C)C2(O)OC34CC2C(=O)[C@]1(C)C3CC[C@]1(C)C4=CC(=O)O[C@H]1c1ccoc1 (stereo partly drawn) [8beta-HYDROXYCARAPIN, 3,8-HEMIACETAL], which “collision cross section (N2)” value is on record?
Its value is 208.8 Å².

Which “collision cross section (N2)” value does the source give for CCC(C)n1ncn(-c2ccc(N3CCN(c4ccc(OCC5COC(Cn6cncn6)(c6ccc(Cl)cc6Cl)O5)cc4)CC3)cc2)c1=O (centres undefined) [ITRACONAZOLE] here?
Its value is 248.8 Å².

For O=C(/C=C/C(=O)Oc1ccccc1C(=O)O)Oc1ccccc1C(=O)O [BISSALICYL FUMARATE], which “collision cross section (N2)” value is on record?
Its value is 171.1 Å².

For CN(C(=O)C(Cl)Cl)c1ccc(OC(=O)c2ccco2)cc1 [DILOXANIDE FUROATE], which “collision cross section (N2)” value is on record?
The value was 171.7 Å².

For O=[N+]([O-])c1cc([As](=O)(O)O)ccc1O [ROXARSONE], which “collision cross section (N2)” value is on record?
The value was 145.5 Å².

Which “collision cross section (N2)” value does the source give for COc1ccc([C@@H]2CC(=O)c3c(O)cc(O)cc3O2)cc1O [HESPERETIN] here?
The value was 169.1 Å².

same assay, conditions: [M+Na]+; instrument: TW; calibrated with polyalanine and drug standards

For COc1ccc([C@@H]2CC(=O)c3c(O)cc(O[C@@H]4O[C@H](CO[C@@H]5O[C@@H](C)[C@H](O)[C@@H](O)[C@H]5O)[C@@H](O)[C@H](O)[C@H]4O)cc3O2)cc1O [HESPERIDIN], which “collision cross section (N2)” value is on record?
Its value is 227 Å².

For C[C@H](CCC(=O)NCC(=O)O)[C@H]1CC[C@H]2[C@@H]3[C@H](O)C[C@@H]4C[C@H](O)CC[C@]4(C)[C@H]3C[C@H](O)[C@]12C [GLYCOCHOLIC ACID], which “collision cross section (N2)” value is on record?
The value was 200.8 Å².

same assay, conditions: [M]+; instrument: TW; calibrated with polyalanine and drug standards

With C[N+](C)(CCOc1ccccc1)Cc1ccccc1 [BEPHENIUM] as the compound, how does the “collision cross section (N2)” value read?
The value was 162.3 Å².
